# Source: US6670399B2, “Compounds and methods for modulating cerebral amyloid angiopathy” (Neurochem (International) Limited, priority 1999, dated 2003)
# System: hAPP transgenic mice
# Assay: Extent of CAA in brain sections of hAPP transgenic mice after 8 weeks of treatment, Thioflavin S staining
# Type: in vivo
# Details: for # of animals with CAA: nine week old hAPP transgenic mice
# Description: The ability of compounds of the invention to inhibit CAA was measured in the following example. Nine week old hAPP transgenic mice were treated for a period of 8 weeks with two different concentrations of a compound of the present invention, 3-amino-1-propanesulfonic acid, sodium salt, 100 and 30 mg/kg. Mice were administered the compound for 8 weeks, after which they were sacrificed and their brains were perfused and processed for histological staining with Thioflavin S. This method may also be used as a screening method for determining activity of a candidate compound for inhibiting CAA.
# The extent of CAA in brain sections obtained from these animals was qualitatively determined following staining.
# [1] = 100 mg/kg (printed 100 mg · kg), hAPP transgenic mice
# [2] = 100 and 30 mg/kg, hAPP transgenic mice, versus vehicle
structure (smiles),measurement,setting,value
"NCCCS(=O)(=O)[O-].[Na+] [3-amino-1-propanesulfonic acid, sodium salt]","CAA Severity + (slight deposition), animals with grade/animals with CAA","30 mg/kg, hAPP transgenic mice",6/10
same,"CAA Severity ++ (moderate deposition), animals with grade/animals with CAA","30 mg/kg, hAPP transgenic mice",4/10
same,CAA animals/total animals,"30 mg/kg, hAPP transgenic mice",10/11
same,# of animals with CAA,"30 mg/kg, 11 animals in study",10
same,"CAA Severity + (slight deposition), animals with grade/animals with CAA",[1],9/10
same,"CAA Severity +++ (severe deposition), animals with grade/animals with CAA",[1],1/10
same,CAA animals/total animals,[1],10/15
same,# of animals with CAA,"100 mg/kg (printed 100 mg · kg), 15 animals in study",10
same,effect on the severity of the deposition seen in the brain vasculature,[2],showing an effect
same,reducing the number of mice showing CAA,[2],effective
